Some test systems named below: LOX IMVI melanoma; MCF7 breast; HS 578T breast; IGROV1 ovarian; UO-31 renal; UACC-62 melanoma; MALME-3M melanoma; SNB-75 CNS; BT-549 breast; M14 melanoma.
Test in all cases: NCI-60 cell line screen, 48 h

Drawing on PubChem BioAssay (NCI), this text covers GI50 and TGI for eight molecules.

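96-well plates; 48 h exposure; 5 concentrations. Endpoints by linear interpolation between flanking doses. Not reached: highest tested concentration assigned. The concentration for 50% growth inhibition is given as GI50. The concentration for full growth arrest is given as TGI.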

As to `Clc1cc2c(nn1)Nc1ccccc1S2`, the GI50 in the assay with LOX IMVI melanoma is greater than 100 µM; with MCF7 breast, greater than 100 µM; in the assay with HS 578T breast, 38.4 µM; in the assay on IGROV1 ovarian, greater than 100 µM; with UO-31 renal, greater than 100 µM; with UACC-62 melanoma, greater than 100 µM. Further, the GI50 with MALME-3M melanoma, in the assay on SNB-75 CNS, in the assay with BT-549 breast and in the assay on M14 melanoma was greater than 100 µM throughout. The TGI with LOX IMVI melanoma, in the assay on MCF7 breast, in the assay with HS 578T breast, in the assay with IGROV1 ovarian, in the assay on UO-31 renal and in the assay with UACC-62 melanoma was greater than 100 µM throughout. Further, the TGI with MALME-3M melanoma, in the assay on SNB-75 CNS, with BT-549 breast and in the assay on M14 melanoma was greater than 100 µM each time.
In the case of `CC(C)(CCN=C(N)Nc1ccccn1)c1ccc(C(F)(F)F)cc1`, the GI50 in the assay with LOX IMVI melanoma is 14.2 µM; with MCF7 breast, 12.2 µM; in the assay with HS 578T breast, 18.1 µM; with IGROV1 ovarian it was 12 µM; in the assay on UO-31 renal it was 10.7 µM; in the assay with UACC-62 melanoma, 15.7 µM. For the same molecule, the GI50 is 14.3 µM in the assay on MALME-3M melanoma, 12.9 µM with SNB-75 CNS, 15.1 µM with BT-549 breast and 14 µM in the assay on M14 melanoma. In addition, the TGI was 27.6 µM in the assay with LOX IMVI melanoma; 27.4 µM in the assay on MCF7 breast; 39.3 µM with HS 578T breast; 26.2 µM in the assay with IGROV1 ovarian; 22.7 µM in the assay with UO-31 renal; 29.8 µM in the assay on UACC-62 melanoma. In addition, the TGI in the assay with MALME-3M melanoma came to 29.6 µM; in the assay with SNB-75 CNS it was 33.8 µM; in the assay on BT-549 breast, 31.2 µM; in the assay with M14 melanoma it was 29.6 µM.
For `CCCCCc1cc[n+](CC(=O)c2ccc([N+](=O)[O-])cc2)cc1`, the GI50 in the assay with LOX IMVI melanoma was 8.15 µM; in the assay with MCF7 breast it was 3.37 µM; in the assay on HS 578T breast, 10.2 µM; in the assay on IGROV1 ovarian, 10.1 µM; in the assay on UO-31 renal, 4.61 µM; in the assay on UACC-62 melanoma it was 10.8 µM. The GI50 with MALME-3M melanoma was 2.15 µM; in the assay on SNB-75 CNS, 10.9 µM; in the assay on BT-549 breast, 4.15 µM; with M14 melanoma, 7.03 µM. In addition, the TGI with LOX IMVI melanoma came to 22.1 µM; with MCF7 breast, 13.4 µM; with HS 578T breast, 36.5 µM; with IGROV1 ovarian it was 24.4 µM; with UO-31 renal, 43.6 µM; in the assay with UACC-62 melanoma it was 24.1 µM. Besides, the TGI in the assay on MALME-3M melanoma amounted to 8 µM; in the assay with SNB-75 CNS it was 26.6 µM; in the assay on BT-549 breast it was 20.5 µM; with M14 melanoma, 22.7 µM.
Take `CC(=O)c1ccc(Nc2nc(Nc3ccc(F)cc3)nc(Nc3ccc(F)cc3)n2)cc1`: the GI50 with LOX IMVI melanoma is 18.2 µM; with MCF7 breast, 4.12 µM; with HS 578T breast it was 4.85 µM; with IGROV1 ovarian it was 9.49 µM; in the assay on UO-31 renal, 7.68 µM; in the assay with UACC-62 melanoma it was 28.9 µM. In addition, the GI50 in the assay on MALME-3M melanoma was 6.73 µM; with SNB-75 CNS, 5.62 µM; in the assay on BT-549 breast, 10.1 µM; with M14 melanoma it was 6.52 µM. In addition, the TGI is greater than 100 µM in the assay with LOX IMVI melanoma; 61.2 µM in the assay on MCF7 breast; 20.2 µM in the assay on HS 578T breast; 28.2 µM in the assay on IGROV1 ovarian; 24.3 µM with UO-31 renal; greater than 100 µM in the assay with UACC-62 melanoma. Moreover, the TGI in the assay on MALME-3M melanoma is 42.1 µM; in the assay on SNB-75 CNS it was 29.5 µM; in the assay with BT-549 breast, 31.5 µM; with M14 melanoma it was greater than 100 µM.
Take `Clc1nc(Cl)c2c3c(sc2n1)CCCC3`: the GI50 in the assay on LOX IMVI melanoma is 1.78 µM; with MCF7 breast, 3.56 µM; in the assay with IGROV1 ovarian it was 3.85 µM; in the assay with UACC-62 melanoma, greater than 100 µM; in the assay on MALME-3M melanoma, greater than 100 µM; in the assay on SNB-75 CNS it was greater than 100 µM. For the same molecule, the GI50 in the assay on BT-549 breast is 3.63 µM; in the assay on M14 melanoma, 4.49 µM. Further, the TGI with LOX IMVI melanoma, in the assay on MCF7 breast, in the assay on HS 578T breast, in the assay on IGROV1 ovarian, in the assay on UO-31 renal and in the assay with UACC-62 melanoma was greater than 100 µM throughout. Also, the TGI in the assay with MALME-3M melanoma, in the assay with SNB-75 CNS, with BT-549 breast and in the assay on M14 melanoma was greater than 100 µM each time.
`COc1ccc2c(c1)C1OCCNC1CC2` (stereo not drawn): the TGI with LOX IMVI melanoma, in the assay with MCF7 breast, in the assay with HS 578T breast, with IGROV1 ovarian, with UO-31 renal and in the assay on UACC-62 melanoma was greater than 100 µM throughout. Besides, the TGI in the assay with MALME-3M melanoma, with SNB-75 CNS, with BT-549 breast and with M14 melanoma was greater than 100 µM in each case.
For the molecule `CCCCCCCCCCCCCCCC(=O)N[C@H](/C=C/[C@H](O)CCCCCCCCCCCCC)CO`, the GI50 in the assay on LOX IMVI melanoma, in the assay with MCF7 breast, with HS 578T breast, in the assay on IGROV1 ovarian, in the assay on UO-31 renal and in the assay on UACC-62 melanoma was greater than 100 µM each time. Moreover, the GI50 in the assay with MALME-3M melanoma, in the assay on SNB-75 CNS, in the assay with BT-549 breast and in the assay with M14 melanoma was greater than 100 µM each time. Moreover, the TGI with LOX IMVI melanoma, in the assay on MCF7 breast, with HS 578T breast, in the assay with IGROV1 ovarian, with UO-31 renal and with UACC-62 melanoma was greater than 100 µM throughout. The TGI in the assay with MALME-3M melanoma, with SNB-75 CNS, in the assay with BT-549 breast and in the assay on M14 melanoma was greater than 100 µM throughout.
As for `CCN(Cc1ccccc1Cl)c1ccc(CO)c(Cl)c1`, the GI50 in the assay on LOX IMVI melanoma was 16 µM; with MCF7 breast it was 0.442 µM; in the assay with HS 578T breast, 16 µM; with IGROV1 ovarian, less than 0.0418 µM; in the assay on UO-31 renal, 9.15 µM; in the assay on UACC-62 melanoma it was 0.152 µM. Moreover, the GI50 was 13.6 µM in the assay on MALME-3M melanoma, 7.13 µM in the assay on SNB-75 CNS, 15.8 µM in the assay on BT-549 breast and 15.3 µM in the assay with M14 melanoma. In addition, the TGI with LOX IMVI melanoma is 30.5 µM; in the assay with MCF7 breast, 12.1 µM; in the assay with HS 578T breast it was 38.7 µM; in the assay with IGROV1 ovarian, 0.138 µM; with UO-31 renal, 24.9 µM; in the assay with UACC-62 melanoma it was 1.63 µM. Also, the TGI with MALME-3M melanoma was 28.1 µM; in the assay on SNB-75 CNS, 21.8 µM; in the assay with BT-549 breast, 29.9 µM; with M14 melanoma, 31.7 µM.
